Molecules are shown by their SMILES.

The target of the assay is T1, 3-phosphoinositide-dependent protein kinase 1 (Homo sapiens, UniProt O15530).
T1 sequence (O15530 whole entry): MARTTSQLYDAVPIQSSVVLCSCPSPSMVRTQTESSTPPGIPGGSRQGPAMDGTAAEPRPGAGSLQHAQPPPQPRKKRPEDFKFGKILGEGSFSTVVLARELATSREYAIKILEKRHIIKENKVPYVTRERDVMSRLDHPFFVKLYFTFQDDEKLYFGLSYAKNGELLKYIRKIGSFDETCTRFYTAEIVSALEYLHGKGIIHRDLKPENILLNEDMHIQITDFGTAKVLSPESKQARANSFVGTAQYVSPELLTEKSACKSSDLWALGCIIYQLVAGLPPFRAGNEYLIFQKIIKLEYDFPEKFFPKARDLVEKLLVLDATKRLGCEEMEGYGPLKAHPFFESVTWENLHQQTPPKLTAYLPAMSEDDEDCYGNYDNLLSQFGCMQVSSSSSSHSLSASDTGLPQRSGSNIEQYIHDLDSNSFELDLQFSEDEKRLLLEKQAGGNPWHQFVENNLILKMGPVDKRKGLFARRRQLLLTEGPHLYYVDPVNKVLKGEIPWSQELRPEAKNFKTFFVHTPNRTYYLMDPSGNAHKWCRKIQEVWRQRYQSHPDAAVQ
In words: PDK1-mediated AKT2 Activation Assay (cAKT2 33P-SPA). The following applies: pH 7.2; 22 °C.

As to `O=C1Nc2ccc(-c3nnn[nH]3)cc2C1=Cc1ccc[nH]1` [(3Z)-3-(1H-pyrrol-2-ylmethylidene)-5-(1H-1,2,3,4-tetrazol-5-yl)-2,3-dihydro-1H-indol-2-one], the IC50 turned out to be 200 nM.

Usually IC50 stands for the concentration needed to halve the response being measured.

The values above are taken from BindingDB's records for doi:10.1016/j.bmcl.2007.04.071 (Berlex Biosciences, 2007).
